Experimental data reported in patent publication US8962574B2 (Boehringer Ingelheim International GmbH, priority 2008, dated 2015).

Legend:
[1] = test system: patients with chronic atrial fibrillation; assay: PETRO phase 2 12-week dose finding study; assay type: in vivo, human; details: 12 weeks
From the text: Primary endpoints were bleeding events and changes in D-dimer. […] Minor bleeding was dose related.

[2] = test system: patients with atrial fibrillation at risk of stroke; assay: RELY Clinical Trial, dabigatran 110 mg or 150 mg twice daily versus warfarin; assay type: in vivo
From the text: The primary study outcome was stroke or systemic embolism. The primary safety outcome was major hemorrhage. Secondary outcomes were stroke, systemic embolism and death. […] All other bleeding was considered minor.
All analyses were based on intention-to-treat.

[3] = test system: activated partial thromboplastin time (aPTT), ecarin clotting time, and thrombin clotting time; assay: Coagulation tests
[4] = test system: patients with atrial fibrillation
Description: PETRO-Ex began while the PETRO study was ongoing and investigators were initially kept blinded to patient treatment group until PETRO was completed. Unblinding investigators to patient treatment was possible thereafter.
Data were summarized descriptively; no hypothesis was to be tested. Events were analyzed on the basis of the treatment at onset. Incidences were reported as number of patients with events as well as normalized to 100 patient-years on the respective treatment.
Written, informed consent was obtained from all patients.
Patients who completed PETRO on 50 mg b.i.d. were switched to 150 mg q.d. upon entry in the PETRO-Ex study (N=93 patients). […] Patients who were down titrated to 50 mg q.d. based on a glomerular filtration rate ≦50 mL/min during PETRO were excluded from the long-term trial; patients down-titrated in other dose levels remained on the q.d. treatment at that dose.
The total exposure reflects both trials, PETRO and PETRO-Ex, together.

[5] = of the 16 on treatment cases with AST or ALT >3×ULN

Question: Which results are given for `[H]/N=C(/N)c1ccc(NCc2nc3cc(C(=O)N(CCC(=O)O)c4ccccn4)ccc3n2C)cc1` [dabigatran]?
Answer: Change in D-dimer levels [1]: comparable to warfarin; Rate of hemorrhagic stroke ([2]; 110 mg b.i.d.): 0.12 % per year; Rate of net benefit-risk outcome (major vascular events, major bleeding and death) ([2]; 110 mg b.i.d.): 7.37 % per year; Stroke, systemic embolism, pulmonary embolism, myocardial infarction death or major bleed (net benefit), Rate ([2]; 110 mg b.i.d.): 7.37 /100 Person Years; First Hospitalization, RR ([2]; 110 mg vs. Warfarin): 0.92; Non-disabling Stroke Modified Rankin 0-2, RR ([2]; 110 mg vs. Warfarin): 0.87; Stroke or systemic embolism, RR ([2]; 110 mg vs. Warfarin): 0.91; Stroke, Hemorrhagic, RR ([2]; 110 mg vs. Warfarin): 0.31; Stroke, RR ([2]; 110 mg vs. Warfarin): 0.92; Stroke, systemic embolism, pulmonary embolism, myocardial infarction death or major bleed (net benefit), RR ([2]; 110 mg vs. Warfarin): 0.92; Rate of hemorrhagic stroke ([2]; 150 mg b.i.d.): 0.10 % per year; Rate of net benefit-risk outcome (major vascular events, major bleeding and death) ([2]; 150 mg b.i.d.): 7.22 % per year; Stroke, systemic embolism, pulmonary embolism, myocardial infarction death or major bleed (net benefit), Rate ([2]; 150 mg b.i.d.): 7.22 /100 Person Years; Stroke, Ischemic or Unspecified, RR ([2]; 150 mg vs. 110 mg): 0.68; Stroke, RR ([2]; 150 mg vs. 110 mg): 0.70; Stroke, systemic embolism, pulmonary embolism, myocardial infarction death or major bleed (net benefit), RR ([2]; 150 mg vs. 110 mg): 0.98; First Hospitalization, RR ([2]; 150 mg vs. Warfarin): 0.97; Non-disabling Stroke Modified Rankin 0-2, RR ([2]; 150 mg vs. Warfarin): 0.62; Stroke or systemic embolism, RR ([2]; 150 mg vs. Warfarin): 0.66; Stroke, Hemorrhagic, RR ([2]; 150 mg vs. Warfarin): 0.26; Stroke, Ischemic or Unspecified, RR ([2]; 150 mg vs. Warfarin): 0.76; Stroke, RR ([2]; 150 mg vs. Warfarin): 0.64; Stroke, systemic embolism, pulmonary embolism, myocardial infarction death or major bleed (net benefit), RR ([2]; 150 mg vs. Warfarin): 0.90; Prolongation of aPTT, ecarin clotting time, and thrombin clotting time [3]: dose dependent prolongation; Fatal bleeding events, rate ([4]; all doses): 0.5 % per year; LFT abnormality resolved after stopping, number of cases [4, 5]: 5; LFT abnormality resolved with continuation, number of cases [4, 5]: 10; Cases with an explanatory clinical diagnosis, number ([4]; of the 18 cases with AST or ALT >3×ULN): 9
